Assay results from patent EP0326329B1, “Quinazoline derivatives useful as insecticides” (Dow AgroSciences LLC, priority 1988, dated 1989).

What was measured:
Format in all cases: in vivo
[1] = tested on: Pseudoperonospora cubensis (downy mildew); assay: Greenhouse Test 1, foliar spray fungicide screen (DOWN MDEW), host squash; conditions: disease control rating, 400 ppm (+++ at 100 ppm)
[2] = tested on: Erysiphe graminis tritici (powdery mildew); assay: Greenhouse Test 1, foliar spray fungicide screen (POWD MDEW), host wheat; conditions: disease control rating, 400 ppm (+++ at 100 ppm)
[3] = tested on: melon aphids (Aphis gossypii Glover); assay: Mite/insect screen, sprayed squash cotyledons (MA); conditions: percent mortality; for mortality at 200 ppm / mortality at 400 ppm: Aphis gossypii, read-out: MA RESULTS %; for mortality at 200 ppm: spray rate 200 ppm; for mortality at 400 ppm: spray rate 400 ppm; for MA RESULTS %: rate not given
Protocol: (§1) The compounds of Examples 1-203 were tested for miticidal and insecticidal activity in the following mite/insect screen.
(§2) Each test compound was formulated by dissolving the compound in acetone/alcohol (50:50) mixture containing 23 g of "TOXIMUL R" (sulfonate/nonionic emulsifier blend) and 13 g of "TOXIMUL S" (sulfonate/nonionic emulsifier blend) per liter. These mixtures were then diluted with water to give the indicated concentrations.
(§3) Other plants in the same treatment pot were left uninfested. The leaves were then sprayed with 5 ml of test solution using a DeVilbiss atomizing sprayer at 10 psi. Both surfaces of the leaves were covered until runoff, and then allowed to dry for one hour. Two uninfested leaves were then excised and placed into a Petri dish containing larval southern armyworm (Spodopetra eridania Cramer).
(§4) After standard exposure periods, percent mortality and phytotoxicity were evaluated. […]

[4] = tested on: Southern corn rootworm (Diabrotica undecimpuctata howardi Barber); assay: Mite/insect screen, soil treatment (CRW); conditions: percent mortality; for mortality at 12 ppm / mortality at 24 ppm: Diabrotica, soil treatment, read-out: CRW RESULTS %; for mortality at 12 ppm: CRW rate 12.00 ppm; for mortality at 24 ppm: CRW rate 24.00 ppm; for CRW RESULTS %: rate not given
Protocol: as §1, §2
Activity on Southern corn rootworm (Diabrotica undecimpuctata howardi Barber) was evaluated by adding two ml of tap water, a presoaked corn seed, and 15 g of dry sandy soil to a one ounce plastic container. The soil was treated with 1 mL of test solution containing a pre-determined concentration of test compound. After six to 12 hours of drying, five 2-3 instar corn rootworm larvae were added to the individual cups, which were then capped and held at 23°C.
as §4

[5] = tested on: Twospotted spider mites (Tetranychus urticae Koch); assay: Mite/insect screen, sprayed squash cotyledons (SM); conditions: percent mortality; for mortality at 200 ppm / mortality at 400 ppm: Tetranychus urticae, read-out: SM RESULTS %; for mortality at 200 ppm: spray rate 200 ppm; for mortality at 400 ppm: spray rate 400 ppm; for SM RESULTS %: rate not given
Protocol: as §1, §2, §3, §4

[6] = tested on: southern armyworm (Spodopetra eridania Cramer); assay: Mite/insect screen, sprayed squash leaves (SAW); conditions: percent mortality; for mortality at 200 ppm / mortality at 400 ppm: Spodoptera eridania, read-out: SAW RESULTS %; for mortality at 200 ppm: spray rate 200 ppm; for mortality at 400 ppm: spray rate 400 ppm; for SAW RESULTS %: rate not given
Protocol: as §1, §2, §3, §4

[7] = tested on: Puccinia recondita tritici (leaf rust); assay: Greenhouse Test 1, foliar spray fungicide screen (LEAF RUST), host wheat; conditions: disease control rating, 400 ppm (+++ at 100 ppm)
[8] = tested on: Botrytis cinerea (gray mold); assay: Greenhouse Test 1, foliar spray fungicide screen (GRAY MOLD), host grape berries; conditions: disease control rating, 400 ppm (+++ at 100 ppm)
[9] = tested on: Pyricularia oryzae (rice blast); conditions: disease control rating, foliar spray, host rice; 400 ppm (+++ at 100 ppm)

Structure (SMILES): c1ccc(CCOc2ncnc3ccccc23)cc1 [Example 33, 4-(2-phenylethoxy)quinazoline]
- DOWN MDEW [1]: ++ (++ = 90-100% control at 400 ppm)
- POWD MDEW [2]: ++ (++ = 90-100% control at 400 ppm)
- mortality at 200 ppm [3]: 80%
- mortality at 400 ppm [3]: 100%
- mortality at 12 ppm [4]: 0%
- mortality at 24 ppm [4]: 80%
- mortality at 200 ppm [5]: 50%
- mortality at 400 ppm [5]: 80%
- mortality at 200 ppm [6]: 0%
- mortality at 400 ppm [6]: 0%
- LEAF RUST [7]: +++ (+++ = 90-100% control at 100 ppm)
- GRAY MOLD [8]: - (- = 0-19% control at 400 ppm)
- RICE BLAST [9]: - (- = 0-19% control at 400 ppm)

Structure (SMILES): Cc1cccc2ncnc(NCCc3ccc(Cl)cc3)c12 [Example 36, N-[2-(4-chlorophenyl)ethyl]-5-methyl-4-quinazolinamine]
- DOWN MDEW [1]: + (+ = 20-89% control at 400 ppm)
- POWD MDEW [2]: - (- = 0-19% control at 400 ppm)
- mortality at 200 ppm [3]: 0%
- mortality at 400 ppm [3]: 0%
- mortality at 12 ppm [4]: 0%
- mortality at 24 ppm [4]: 0%
- mortality at 200 ppm [5]: 0%
- mortality at 400 ppm [5]: 0%
- mortality at 200 ppm [6]: 0%
- mortality at 400 ppm [6]: 0%
- LEAF RUST [7]: - (- = 0-19% control at 400 ppm)
- GRAY MOLD [8]: - (- = 0-19% control at 400 ppm)
- RICE BLAST [9]: + (+ = 20-89% control at 400 ppm)

Structure (SMILES): Clc1ccc(CCNc2ncnc3ccc(Br)cc23)cc1 [Example 37, N-[2-(4-chlorophenyl)ethyl]-6-bromo-4-quinazolinamine]
- DOWN MDEW [1]: - (- = 0-19% control at 400 ppm)
- POWD MDEW [2]: - (- = 0-19% control at 400 ppm)
- mortality at 200 ppm [3]: 0%
- mortality at 400 ppm [3]: 0%
- mortality at 12 ppm [4]: 0%
- mortality at 24 ppm [4]: 0%
- mortality at 200 ppm [5]: 0%
- mortality at 400 ppm [5]: 0%
- mortality at 200 ppm [6]: 0%
- mortality at 400 ppm [6]: 0%
- LEAF RUST [7]: - (- = 0-19% control at 400 ppm)
- GRAY MOLD [8]: - (- = 0-19% control at 400 ppm)
- RICE BLAST [9]: - (- = 0-19% control at 400 ppm)

Structure (SMILES): CC(C)c1ccc(CCNc2ncnc3cc(Cl)ccc23)cc1 [Example 40, 7-chloro-N-[2-[4-(i-propyl)phenyl]ethyl]-4-quinazolinamine]
- DOWN MDEW [1]: +++ (+++ = 90-100% control at 100 ppm)
- POWD MDEW [2]: +++ (+++ = 90-100% control at 100 ppm)
- mortality at 200 ppm [3]: 20%
- mortality at 400 ppm [3]: 0%
- mortality at 12 ppm [4]: 0%
- mortality at 24 ppm [4]: 0%
- mortality at 200 ppm [5]: 80%
- mortality at 400 ppm [5]: 90%
- mortality at 200 ppm [6]: 40%
- mortality at 400 ppm [6]: 0%
- LEAF RUST [7]: +++ (+++ = 90-100% control at 100 ppm)
- GRAY MOLD [8]: - (- = 0-19% control at 400 ppm)
- RICE BLAST [9]: ++ (++ = 90-100% control at 400 ppm)

Structure (SMILES): Clc1cccc(CCOc2ncnc3ccccc23)c1 [Example 41, 4-[2-(3-chlorophenyl)ethoxy]quinazoline]
- DOWN MDEW [1]: +++ (+++ = 90-100% control at 100 ppm)
- POWD MDEW [2]: +++ (+++ = 90-100% control at 100 ppm)
- mortality at 400 ppm [3]: 80%
- MA RESULTS % [3]: 100%
- mortality at 24 ppm [4]: 0%
- CRW RESULTS % [4]: 0%
- mortality at 400 ppm [5]: 80%
- SM RESULTS % [5]: 0%
- mortality at 400 ppm [6]: 0%
- SAW RESULTS % [6]: 0%
- LEAF RUST [7]: +++ (+++ = 90-100% control at 100 ppm)
- GRAY MOLD [8]: - (- = 0-19% control at 400 ppm)
- RICE BLAST [9]: ++ (++ = 90-100% control at 400 ppm)

Structure (SMILES): c1ccc(CCCCOc2ncnc3ccccc23)cc1 [Example 42, 4-(4-phenylbutoxy)quinazoline]
- DOWN MDEW [1]: +++ (+++ = 90-100% control at 100 ppm)
- POWD MDEW [2]: +++ (+++ = 90-100% control at 100 ppm)
- mortality at 200 ppm [3]: 100%
- mortality at 400 ppm [3]: 100%
- mortality at 12 ppm [4]: 0%
- mortality at 24 ppm [4]: 0%
- mortality at 200 ppm [5]: 100%
- mortality at 400 ppm [5]: 100%
- mortality at 200 ppm [6]: 0%
- mortality at 400 ppm [6]: 50%
- LEAF RUST [7]: +++ (+++ = 90-100% control at 100 ppm)
- GRAY MOLD [8]: - (- = 0-19% control at 400 ppm)
- RICE BLAST [9]: +++ (+++ = 90-100% control at 100 ppm)

Structure (SMILES): Cc1cc(C)c(CCOc2ncnc3ccccc23)c(C)c1 [Example 43, 4-[2-(2,4,6-trimethylphenyl)ethoxy]quinazoline]
- DOWN MDEW [1]: ++ (++ = 90-100% control at 400 ppm)
- POWD MDEW [2]: ++ (++ = 90-100% control at 400 ppm)
- mortality at 400 ppm [3]: 0%
- mortality at 24 ppm [4]: 0%
- mortality at 400 ppm [5]: 0%
- mortality at 400 ppm [6]: 0%
- LEAF RUST [7]: ++ (++ = 90-100% control at 400 ppm)
- GRAY MOLD [8]: - (- = 0-19% control at 400 ppm)
- RICE BLAST [9]: ++ (++ = 90-100% control at 400 ppm)

Structure (SMILES): FC(F)(F)Oc1ccc2ncnc(NCCc3ccc(Oc4ccccc4)cc3)c2c1 [Example 44, 6-(trifluoromethoxy)-N-[2-(4-phenoxyphenyl)ethyl]-4-quinazolinamine]
- DOWN MDEW [1]: + (+ = 20-89% control at 400 ppm)
- POWD MDEW [2]: - (- = 0-19% control at 400 ppm)
- mortality at 400 ppm [3]: 0%
- mortality at 24 ppm [4]: 0%
- mortality at 400 ppm [5]: 0%
- mortality at 400 ppm [6]: 0%
- LEAF RUST [7]: - (- = 0-19% control at 400 ppm)
- GRAY MOLD [8]: - (- = 0-19% control at 400 ppm)
- RICE BLAST [9]: - (- = 0-19% control at 400 ppm)

Structure (SMILES): c1ccc(Oc2ccccc2CCNc2ncnc3ccccc23)cc1 [Example 45, N-[2-(2-phenoxyphenyl)ethyl]-4-quinazolinamine]
- DOWN MDEW [1]: + (+ = 20-89% control at 400 ppm)
- POWD MDEW [2]: + (+ = 20-89% control at 400 ppm)
- mortality at 400 ppm [3]: 0%
- mortality at 24 ppm [4]: 0%
- mortality at 400 ppm [5]: 0%
- mortality at 400 ppm [6]: 0%
- LEAF RUST [7]: +++ (+++ = 90-100% control at 100 ppm)
- GRAY MOLD [8]: - (- = 0-19% control at 400 ppm)
- RICE BLAST [9]: - (- = 0-19% control at 400 ppm)

Structure (SMILES): FC(F)(F)c1ccccc1CCOc1ncnc2ccccc12 [Example 47, 4-[2-[2-(trifluoromethyl)phenyl]ethoxy]quinazoline]
- DOWN MDEW [1]: +++ (+++ = 90-100% control at 100 ppm)
- POWD MDEW [2]: +++ (+++ = 90-100% control at 100 ppm)
- mortality at 400 ppm [3]: 0%
- mortality at 24 ppm [4]: 0%
- mortality at 400 ppm [5]: 0%
- mortality at 400 ppm [6]: 0%
- LEAF RUST [7]: +++ (+++ = 90-100% control at 100 ppm)
- GRAY MOLD [8]: - (- = 0-19% control at 400 ppm)
- RICE BLAST [9]: +++ (+++ = 90-100% control at 100 ppm)

Structure (SMILES): Fc1ccccc1CCOc1ncnc2ccccc12 [Example 48, 4-[2-(2-fluorophenyl)ethoxy]quinazoline]
- DOWN MDEW [1]: ++ (++ = 90-100% control at 400 ppm)
- POWD MDEW [2]: +++ (+++ = 90-100% control at 100 ppm)
- mortality at 400 ppm [3]: 100%
- mortality at 24 ppm [4]: 0%
- mortality at 400 ppm [5]: 90%
- mortality at 400 ppm [6]: 0%
- LEAF RUST [7]: +++ (+++ = 90-100% control at 100 ppm)
- GRAY MOLD [8]: - (- = 0-19% control at 400 ppm)
- RICE BLAST [9]: + (+ = 20-89% control at 400 ppm)

Structure (SMILES): COc1ccc(CCOc2ncnc3ccccc23)cc1 [Example 49, 4-[2-(4-methoxyphenyl)ethoxy]quinazoline]
- DOWN MDEW [1]: +++ (+++ = 90-100% control at 100 ppm)
- POWD MDEW [2]: +++ (+++ = 90-100% control at 100 ppm)
- mortality at 400 ppm [3]: 0%
- MA RESULTS % [3]: 100%
- mortality at 24 ppm [4]: 0%
- CRW RESULTS % [4]: 0%
- mortality at 400 ppm [5]: 80%
- SM RESULTS % [5]: 90%
- mortality at 400 ppm [6]: 0%
- SAW RESULTS % [6]: 0%
- LEAF RUST [7]: +++ (+++ = 90-100% control at 100 ppm)
- GRAY MOLD [8]: - (- = 0-19% control at 400 ppm)
- RICE BLAST [9]: +++ (+++ = 90-100% control at 100 ppm)

Structure (SMILES): FC(F)(F)c1cccc(CCOc2ncnc3ccccc23)c1 [Example 51, 4-[2-[3-(trifluoromethyl)phenyl]ethoxy]quinazoline]
- DOWN MDEW [1]: +++ (+++ = 90-100% control at 100 ppm)
- POWD MDEW [2]: ++ (++ = 90-100% control at 400 ppm)
- mortality at 400 ppm [3]: 0%
- mortality at 24 ppm [4]: 0%
- mortality at 400 ppm [5]: 0%
- mortality at 400 ppm [6]: 0%
- LEAF RUST [7]: ++ (++ = 90-100% control at 400 ppm)
- GRAY MOLD [8]: - (- = 0-19% control at 400 ppm)
- RICE BLAST [9]: +++ (+++ = 90-100% control at 100 ppm)
